This is an account of results in publication PMC6017873 (Molecules : A Journal of Synthetic Chemistry and Natural …, 2018).

Broadly, the IC50 is the concentration that gives 50% inhibition.

The target of one assay is T1, SIRT1 (Homo sapiens, UniProt Q96EB6).
T1 sequence (Q96EB6 1-747): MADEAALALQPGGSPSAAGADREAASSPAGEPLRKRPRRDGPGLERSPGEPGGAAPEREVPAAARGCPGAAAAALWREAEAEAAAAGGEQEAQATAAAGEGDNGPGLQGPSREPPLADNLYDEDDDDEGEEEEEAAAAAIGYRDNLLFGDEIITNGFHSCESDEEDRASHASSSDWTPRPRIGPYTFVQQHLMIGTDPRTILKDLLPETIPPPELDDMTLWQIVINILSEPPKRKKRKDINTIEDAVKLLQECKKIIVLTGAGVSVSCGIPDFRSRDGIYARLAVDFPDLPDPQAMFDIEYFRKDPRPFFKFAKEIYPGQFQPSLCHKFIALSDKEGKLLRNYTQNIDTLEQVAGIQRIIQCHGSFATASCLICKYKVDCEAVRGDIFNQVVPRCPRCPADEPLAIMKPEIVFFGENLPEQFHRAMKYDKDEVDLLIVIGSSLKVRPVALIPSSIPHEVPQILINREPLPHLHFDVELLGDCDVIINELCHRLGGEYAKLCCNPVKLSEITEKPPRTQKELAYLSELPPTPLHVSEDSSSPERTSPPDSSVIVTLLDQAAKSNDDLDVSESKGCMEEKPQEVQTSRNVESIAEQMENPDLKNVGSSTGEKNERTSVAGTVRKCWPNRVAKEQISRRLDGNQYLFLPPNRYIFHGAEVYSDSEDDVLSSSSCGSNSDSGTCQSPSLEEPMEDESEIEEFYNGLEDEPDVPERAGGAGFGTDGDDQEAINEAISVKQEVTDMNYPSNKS
Also noted: method as in PMID 28475330. As to conditions: reference inhibitors, same experimental conditions; cited from earlier work.

The next assay relates to K-562 cells. Nature of the assay: Acetylation of histone H4 and α-tubulin by Western blot, K-562. Format: cell-based, human. Particulars: K-562, 5 or 50 µM. Here is the method: Total proteins were extracted using the MPER® reagent (Thermo-scientific, […], Belgium) supplemented by 1× protease inhibitor cocktail (Complete EDTA-free, Roche, Prophac, Luxembourg, Luxembourg) according to manufacturer's instructions. Histones were extracted as previously described. Western blots were carried out as previously reported. Anti-acetylated α-tubulin (sc-23950) was from Santa Cruz Biotechnology (Tebubio, Boechout, Belgium); anti-acetylated histone H4 (06-866), anti-acetylated histone […] K-562 cells were treated with […] Acetylation of histone H4 (AcH4) and α-tubulin (Ac α- tubulin) was analyzed by Western Blot. β-actin and histone H1 were used as loading controls for the analysis of total and acid extracts, respectively. Blots are representative of three independent experiments. […]
For orientation: In western blotting, separated proteins are transferred to a membrane and probed.

For the next assay, the target named is T2, SIRT3 (Homo sapiens, UniProt Q9NTG7).
T2 sequence (Q9NTG7 1-399): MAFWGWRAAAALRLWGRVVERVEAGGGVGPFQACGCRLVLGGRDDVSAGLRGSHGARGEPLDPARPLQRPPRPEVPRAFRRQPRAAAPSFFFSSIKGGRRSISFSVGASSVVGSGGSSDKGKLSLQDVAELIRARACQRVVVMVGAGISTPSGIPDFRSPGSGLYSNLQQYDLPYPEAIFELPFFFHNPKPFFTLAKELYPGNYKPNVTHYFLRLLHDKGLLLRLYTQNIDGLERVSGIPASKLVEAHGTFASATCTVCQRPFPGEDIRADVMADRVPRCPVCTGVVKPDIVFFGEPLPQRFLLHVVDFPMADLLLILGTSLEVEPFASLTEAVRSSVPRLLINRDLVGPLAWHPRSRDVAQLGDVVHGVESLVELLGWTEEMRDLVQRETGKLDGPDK
Details: method as in PMID 28475330. As to conditions: cited from earlier work.

Where [1] appears, read: reference inhibitors, same experimental conditions.

On to `N#C/C(=C\c1ccc(-c2cc(Cl)ccc2Cl)o1)C(=O)Nc1cccc2ncccc12` [AGK2], for which the concentration for half-maximal inhibition (IC50) on SIRT1 is 98.1 ± 2.4 µM.

For the molecule `Cc1ccc(C(=O)Nc2ccc(S(=O)(=O)O)c3cc(S(=O)(=O)O)cc(S(=O)(=O)O)c23)cc1NC(=O)c1cccc(NC(=O)Nc2cccc(C(=O)Nc3cc(C(=O)Nc4ccc(S(=O)(=O)O)c5cc(S(=O)(=O)O)cc(S(=O)(=O)O)c45)ccc3C)c2)c1` [Suramin, suramin], the “histone H4 or α-tubulin acetylation” value in the assay with K-562 cells is reported as “fails to induce histone H4 or α-tubulin acetylation”. Further, the “histone H4 or α-tubulin acetylation” value in the assay with K-562 cells (listed as suramin) is reported as “failed to induce any increase in histone or α-tubulin acetylation”. Also, the “remaining SIRT3 enzymatic activity compared to the control set to 100%” value on SIRT3 (at 100 µM) was 70%. In addition, on SIRT3 (setting [1]), the IC50 is greater than 100 µM and the “IC50 SIRT3” value was “inactive”.
